Measurements from US9127136B1, “Purification of monomer from recycle polyesters” (SABIC Global Technologies B.V, priority 2014, dated 2015).
Values after ≈ are worked out from the molar mass of the structure shown.

Assay: Solubility of BHET in different solvents (shaken 2 hours, analyzed by HPLC)
Assay type: physicochemical
Description: Solubility of BHET in Different Solvents
10 ml of the designated solvent was added to a scintillation vial with 2 g of BHET. The vial was placed in a shaker, shaken for 2 hours and the contents were analyzed by HPLC.

O=C(OCCO)c1ccc(C(=O)OCCO)cc1 [BHET, bis(2-hydroxyethyl) terephthalate]
solubility of BHET in 45% THF/Hexanes (estimated) (solvent: 45% THF/Hexanes, estimated from 12.6% solubility in THF): 5.67%
% Solubility (w/v) (solvent: Acetone): 9.09 % (w/v)
% Solubility (w/v) (solvent: Acetonitrile): 4.98 % (w/v)
% Solubility (w/v) (solvent: DMF): 60 % (w/v)
% Solubility (w/v) (solvent: Dichloromethane): 1.12 % (w/v)
% Solubility (w/v) (solvent: Ethanol): 8.61 % (w/v)
% Solubility (w/v) (solvent: Methanol): 13.75 % (w/v)
% Solubility (w/v) (solvent: THF): 12.6 % (w/v)
% Solubility (w/v) (solvent: ethylene glycol): 2.81 % (w/v)
% Solubility (w/v) (solvent: hexanes): _~0 % (w/v)
% Solubility (w/v) (solvent: iso-propanol): 6.16 % (w/v)
solubility thermodynamic at 2 h (thermodynamic from solid, solvent: water): 5000 µg/mL (≈ 19.7 mM)
